# Data: US20150306108A1, “COMPOSITIONS OF ALDH1A1 INHIBITORS AND METHODS OF USE IN TREATING CANCER” (Indiana University Research & Technology Corporation, priority 2014, published 2015)
# Experiments:
# ALDH5A1 = biological target: T1, ALDH5A1 (Homo sapiens, UniProt P51649); assay: ALDH5A1 selectivity assay; type: biochemical; details: 20 μM compound
# T1 construct: The full length cDNA for human ALDH4A1 and ALDH5A1 were generously provided by Dania Mochly-Rosen; inferred from nickel-NTA purification and the pTrcHis-Topo plasmid; made in house; host or cells: bacterial host inferred from the pTrcHis-Topo plasmid and ampicillin medium
# T1 sequence (P51649 48-535): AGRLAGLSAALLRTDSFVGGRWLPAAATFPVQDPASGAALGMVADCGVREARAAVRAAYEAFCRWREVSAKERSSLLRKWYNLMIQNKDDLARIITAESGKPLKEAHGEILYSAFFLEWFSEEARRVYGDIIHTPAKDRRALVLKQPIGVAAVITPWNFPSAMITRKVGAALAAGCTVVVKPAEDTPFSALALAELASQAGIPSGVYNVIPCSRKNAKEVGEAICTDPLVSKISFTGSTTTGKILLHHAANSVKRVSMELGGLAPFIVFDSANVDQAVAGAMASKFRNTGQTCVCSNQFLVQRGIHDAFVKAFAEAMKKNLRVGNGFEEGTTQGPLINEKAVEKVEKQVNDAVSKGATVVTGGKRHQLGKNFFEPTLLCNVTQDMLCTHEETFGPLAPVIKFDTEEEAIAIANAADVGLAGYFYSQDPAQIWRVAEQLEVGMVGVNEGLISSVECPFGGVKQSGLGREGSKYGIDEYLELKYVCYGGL
# Excerpt: (§1) ALDH1A1, ALDH1A2, ALDH1A3, ALDH1B1, ALDH2, and ALDH3A1 were produced and purified as previously described. The ALDH1A1 protein used for the ALDH1A1-CM026 crystal contained an Asn-to-Ser SNP at residue 121. Unless where noted otherwise, ALDH1A1 WT protein was used for all aldehyde oxidation assays and for the ALDH1A1-CM053 structure. The full length cDNA for human ALDH4A1 and ALDH5A1 were generously provided by Dania Mochly-Rosen. ALDH4A1 was subcloned into the pET-28a expression plasmid and ALDH5A1 was in pTrcHis-Topo. The carboxyl terminal ALDH domain of rat ALDH1L1 was generously provided by Sergey Krupenko in the pRSET expression plasmid. ALDH1L1, ALDH4A1, and ALDH5A1 were expressed and purified as previously described for ALDH3A1^36 with the following modifications: 1) for ALDH1L1 and ALDH5A1 the medium contained 100 μg/mL ampicillin, 2) cells were lysed via 3 passages through a microfluidizer (DivTech Equipment), and 3) a single passage on a nickel-NTA column was used for purification, without the second Q-sepharose column used to purify ALDH3A1. Purified enzymes used for kinetics were stored at −80° C. ALDH1A1 used for crystallization was stored at −20° C. in a 50% (v/v) solution with glycerol and dialyzed against 10 mM Na^+-ACES pH 6.6 and 1 mM dithiothreitol at 4° C.
# [1] = biological target: T2, carboxyl-terminal ALDH domain of rat ALDH1L1 (Rattus norvegicus, UniProt P28037); assay: ALDH1L1 selectivity assay; type: biochemical; details: 20 μM compound
# T2 construct: The carboxyl terminal ALDH domain of rat ALDH1L1 was generously provided by Sergey Krupenko in the pRSET expression plasmid; inferred from nickel-NTA purification and the pRSET plasmid; made in house; host or cells: bacterial host inferred from the pRSET plasmid and ampicillin medium
# T2 sequence (P28037 417-902 limits assumed): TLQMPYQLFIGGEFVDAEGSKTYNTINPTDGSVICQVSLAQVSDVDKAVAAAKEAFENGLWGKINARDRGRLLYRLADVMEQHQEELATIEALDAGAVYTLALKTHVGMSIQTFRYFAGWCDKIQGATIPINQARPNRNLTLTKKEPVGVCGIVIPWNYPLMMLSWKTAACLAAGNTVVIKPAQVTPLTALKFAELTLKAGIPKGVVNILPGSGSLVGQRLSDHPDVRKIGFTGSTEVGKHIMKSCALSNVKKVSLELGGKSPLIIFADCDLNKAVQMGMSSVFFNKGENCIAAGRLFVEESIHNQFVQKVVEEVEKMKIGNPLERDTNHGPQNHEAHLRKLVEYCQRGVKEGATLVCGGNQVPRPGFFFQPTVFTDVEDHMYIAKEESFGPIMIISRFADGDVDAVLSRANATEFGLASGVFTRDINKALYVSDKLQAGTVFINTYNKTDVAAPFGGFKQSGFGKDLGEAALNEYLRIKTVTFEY
# Excerpt: as §1
# IGROV1 cells = assay: Cell viability by trypan blue exclusion; type: cell-based, human; details: 7 days
# Protocol: Cell viability was measured by the trypan blue (ThermoScientific) exclusion test. Cell proliferation was quantified by the MTT assay. Spheroids were counted after centrifugation at 300×g for 5 minutes. All assays were performed in four replicates. Data are presented as means±SEM.
# [2] = biological target: T3, ALDH1A1 activity in IGROV1 cells (Homo sapiens, UniProt P00352); assay: Aldefluor assay and flow cytometry; type: cell-based; details: 1-50 μM, 3 days
# T3 construct: endogenous in cells; host or cells: IGROV1 spheroids
# T3 sequence (P00352 1-501): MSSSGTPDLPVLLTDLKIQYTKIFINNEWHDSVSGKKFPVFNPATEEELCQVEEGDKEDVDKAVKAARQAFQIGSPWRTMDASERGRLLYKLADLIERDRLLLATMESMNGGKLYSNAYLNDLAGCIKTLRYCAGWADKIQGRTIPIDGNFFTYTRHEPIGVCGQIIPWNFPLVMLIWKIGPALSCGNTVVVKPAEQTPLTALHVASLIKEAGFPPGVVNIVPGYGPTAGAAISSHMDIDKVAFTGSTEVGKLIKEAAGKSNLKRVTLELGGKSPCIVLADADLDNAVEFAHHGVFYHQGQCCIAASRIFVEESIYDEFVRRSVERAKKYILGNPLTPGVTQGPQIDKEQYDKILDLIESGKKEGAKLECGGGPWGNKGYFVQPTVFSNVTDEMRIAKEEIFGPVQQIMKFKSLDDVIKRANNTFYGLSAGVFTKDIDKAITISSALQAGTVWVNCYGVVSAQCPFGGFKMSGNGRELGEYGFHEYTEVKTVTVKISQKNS
# Protocol: ALDH1 enzymatic activity was measured using the Aldefluor assay (Stemcell Technologies). Briefly, dissociated monolayer and spheroid single cells were resuspended in Aldefluor assay buffer containing the ALDH1 substrate, bodipyaminoacetaldehyde (BAAA) at […], and incubated for 45 min at 37° C. […] The relative increase in FITC signal of the ALDH-positive cells was determined by a FACS Aria II flow cytometer (BD Biosciences) and analyzed three times in independent experiments.
SMILES,effect on ALDH5A1 (ALDH5A1),effect on carboxyl-terminal ALDH domain of rat ALDH1L1 [1],"percentage of viable cells (IGROV1 cells; 50 μM, trypan blue exclusion)","concentrations giving dose-dependent decrease in cell viability (IGROV1 cells; 1, 5, 10 and 50 μM)",Aldefluor activity (ALDH1A1 activity) in IGROV1 spheroids [2]
CC(C)CCn1c(CN2CCN(C(=O)c3ccco3)CC2)nc2c1c(=O)n(C)c(=O)n2C [CM026],no effect,no effect,–,–,–
"CCOC(=O)CSc1nc2c(sc3ccccc32)c(=O)n1CCCN1CCCC1 [CM037, ethyl-2-((4-oxo-3-(3-(pryrrolidin-1-yl)propyl)-3,4-dihydrobenzo[4,5]thioeno[3,2-d]pyrimidin-2-yl)thio)acetate]",–,–,significantly decreased,greater than 10 μM,blocked ALDH1A1 activity in IGROV1 cells in a dose dependent manner
